The values that follow come from ChEMBL document CHEMBL4000191, “Antileishmanial evaluation of clubbed bis(indolyl)-pyridine derivatives: One-pot synthesis, in vitro biological evaluations and in silico ADME prediction” (Bioorg Med Chem Lett, 2017).

The structures appear in SMILES notation. ≈ marks a conversion by molar mass, not a printed value.

One data set has as its system Pseudomonas aeruginosa. In words: Antibacterial activity against Pseudomonas aeruginosa NCIM 2036 by standard agar method. Type of data set: functional.
The subject of another data set is Bacillus subtilis. In words: Antibacterial activity against Bacillus subtilis NCIM 2063 by standard agar method. The format is functional.
The subject of another data set is Escherichia coli. In words: Antibacterial activity against Escherichia coli NCIM 2256 by standard agar method. Type of data set: functional.
In the next data set the test system is Staphylococcus aureus. Nature of the data set: Antibacterial activity against Staphylococcus aureus NCIM 2901 by standard agar method. The format is functional.
Data set [1] concerns Leishmania donovani. In words: Antileishmanial activity against Leishmania donovani NHOM/IN/80/DD8 promastigotes after 72 hrs by MTT assay. Conditions: NHOM/IN/80/DD8, 72 h. The format is functional. (In general: Tetrazolium assays rely on reduction of a dye to a coloured formazan, in cell work by metabolically active cells.)
Another data set deals with HeLa. In words: Cytotoxic activity against human HeLa cells up to 300 ug/mL after 72 hrs by MTT assay. The format is cell-based.
The next data set deals with Leishmania chagasi. In words: Antileishmanial activity against Leishmania donovani chagasi MHOM/BR/74/PP75 promastigotes after 72 hrs by phase contrast microscopic method. The format is functional. Conditions: MHOM/BR/74/PP75, 72 h.
The subject of data set [2] is Leishmania donovani. Nature of the data set: Antileishmanial activity against Leishmania donovani. The format is functional.

Turning to `Clc1ccc(-c2cc(-c3c[nH]c4ccccc34)nc(-c3c[nH]c4ccccc34)c2)cc1`, the minimal inhibitory concentration (MIC) (as a rule, the smallest concentration in the dilution series that meets the test's criterion for growth inhibition) is 115 µg/mL (≈ 275 µM) against Pseudomonas aeruginosa, 77.2 µg/mL (≈ 184 µM) in the data set with Bacillus subtilis, 90.5 µg/mL (≈ 216 µM) in the data set on Escherichia coli and 183 µg/mL (≈ 435 µM) against Staphylococcus aureus. Further, in the data set on Leishmania donovani [1], the IC50 – broadly, the concentration that inhibits the measured activity by half – was determined as 166 µM.
Consider `O=C(O)c1ccccc1-c1cc(-c2c[nH]c3ccccc23)nc(-c2c[nH]c3ccccc23)c1`, for which the MIC was 122 µg/mL (≈ 284 µM) in the data set on Pseudomonas aeruginosa, 70.4 µg/mL (≈ 164 µM) with Bacillus subtilis, 71.5 µg/mL (≈ 166 µM) against Escherichia coli and 129 µg/mL (≈ 300 µM) in the data set with Staphylococcus aureus. In the data set on Leishmania donovani [1], this compound showed an IC50 of 118 µM.
The corresponding values for `COc1cc(-c2cc(-c3c[nH]c4ccccc34)nc(-c3c[nH]c4ccccc34)c2)cc(OC)c1OC` are 197 µg/mL (≈ 414 µM), 79.9 µg/mL (≈ 168 µM), 192 µg/mL (≈ 403 µM), 179 µg/mL (≈ 377 µM) and 136 µM.
The corresponding values for `COc1ccc(-c2cc(-c3c[nH]c4ccccc34)nc(-c3c[nH]c4ccccc34)c2)cc1OC` are 180 µg/mL (≈ 404 µM), 55.4 µg/mL (≈ 124 µM), 191 µg/mL (≈ 428 µM), 194 µg/mL (≈ 436 µM) and 192 µM.
Turning to `c1ccc(-c2cc(-c3c[nH]c4ccccc34)nc(-c3c[nH]c4ccccc34)c2)cc1`, the MIC in the data set with Pseudomonas aeruginosa was 149 µg/mL (≈ 387 µM); in the data set on Bacillus subtilis, 89.6 µg/mL (≈ 232 µM); in the data set on Escherichia coli, 55.4 µg/mL (≈ 144 µM); in the data set with Staphylococcus aureus it was 158 µg/mL (≈ 410 µM). In the data set on Leishmania donovani [1], this compound displayed an IC50 of 142 µM.
Regarding `COc1ccc(-c2cc(-c3c[nH]c4ccccc34)nc(-c3c[nH]c4ccccc34)c2)cc1`, the MIC worked out at 120 µg/mL (≈ 288 µM) with Pseudomonas aeruginosa, 81.5 µg/mL (≈ 196 µM) against Bacillus subtilis, 46.6 µg/mL (≈ 112 µM) in the data set on Escherichia coli and 165 µg/mL (≈ 398 µM) against Staphylococcus aureus. The Activity entry in the data set on HeLa is reported as “Non-Toxic”. The midpoint of inhibition with Leishmania donovani [1], the IC50, lay at 99.5 µM.
As for `Oc1ccc(-c2cc(-c3c[nH]c4ccccc34)nc(-c3c[nH]c4ccccc34)c2)cc1O`, the MIC in the data set with Pseudomonas aeruginosa turned out to be 224 µg/mL (≈ 535 µM); against Bacillus subtilis, 121 µg/mL (≈ 291 µM); in the data set with Escherichia coli, 158 µg/mL (≈ 379 µM); with Staphylococcus aureus, 191 µg/mL (≈ 458 µM). The midpoint of inhibition in the data set on Leishmania donovani [1], the IC50, lay at 287 µM.
The corresponding values for `Clc1cccc(Cl)c1-c1cc(-c2c[nH]c3ccccc23)nc(-c2c[nH]c3ccccc23)c1` are 175 µg/mL (≈ 386 µM), 96.5 µg/mL (≈ 212 µM), 87.5 µg/mL (≈ 193 µM), 178 µg/mL (≈ 391 µM) and 102 µM.
As for `COC(=O)[C@@H]1C[C@@]23CCCN4CC[C@@]5(c6ccccc6N(C(=O)OC)[C@]15CC2)[C@H]43`, half-maximal inhibition in the data set on Leishmania chagasi (IC50) was put at 60.9 µM.
For the compound `COc1ccc(OC)c(-c2cc(-c3c[nH]c4ccccc34)nc(-c3c[nH]c4ccccc34)c2)c1`, the minimum inhibitory concentration (MIC) against Pseudomonas aeruginosa came to 182 µg/mL (≈ 408 µM); in the data set with Bacillus subtilis it was 79.5 µg/mL (≈ 178 µM); against Escherichia coli it was 133 µg/mL (≈ 299 µM); against Staphylococcus aureus, 158 µg/mL (≈ 356 µM). This compound had a half-maximal inhibitory concentration (IC50) in the data set on Leishmania donovani [1] of 260 µM.
The corresponding values for `CN(C)c1ccc(-c2cc(-c3c[nH]c4ccccc34)nc(-c3c[nH]c4ccccc34)c2)cc1` are 149 µg/mL (≈ 349 µM), 103 µg/mL (≈ 240 µM), 95.9 µg/mL (≈ 224 µM), 229 µg/mL (≈ 534 µM) and 112 µM.
In the case of `COc1ccc(-c2cc(-c3c[nH]c4ccccc34)nc(-c3c[nH]c4ccccc34)c2)c(OC)c1`, the MIC with Pseudomonas aeruginosa stood at 188 µg/mL (≈ 423 µM); in the data set with Bacillus subtilis, 88.7 µg/mL (≈ 199 µM); against Escherichia coli, 52.2 µg/mL (≈ 117 µM); in the data set with Staphylococcus aureus, 123 µg/mL (≈ 276 µM). Further, the concentration for half-maximal inhibition (IC50) with Leishmania donovani [1] was 600 µM.
Take `Clc1ccccc1-c1cc(-c2c[nH]c3ccccc23)nc(-c2c[nH]c3ccccc23)c1`: the MIC with Pseudomonas aeruginosa stood at 150 µg/mL (≈ 358 µM); against Bacillus subtilis it was 64.8 µg/mL (≈ 154 µM); in the data set on Escherichia coli it was 41.4 µg/mL (≈ 98.5 µM); with Staphylococcus aureus, 166 µg/mL (≈ 394 µM). For the same compound, the Activity result in the data set with HeLa is listed as “Non-Toxic”. The IC50 in the data set with Leishmania donovani [1] was determined as 123 µM.
`COc1cc(-c2cc(-c3c[nH]c4ccccc34)nc(-c3c[nH]c4ccccc34)c2)ccc1O`: the MIC in the data set with Pseudomonas aeruginosa stood at 165 µg/mL (≈ 383 µM); with Bacillus subtilis, 95.7 µg/mL (≈ 222 µM); against Escherichia coli, 129 µg/mL (≈ 300 µM); against Staphylococcus aureus it was 221 µg/mL (≈ 511 µM). The compound also yielded a 50% inhibitory concentration (IC50) in the data set on Leishmania donovani [1] of 169 µM.
In the case of `CC1(C)S[C@@H]2[C@H](NC(=O)[C@H](N)c3ccccc3)C(=O)N2[C@H]1C(=O)O` [AMPICILLIN], the minimum inhibitory concentration (MIC) against Pseudomonas aeruginosa was found to be 100 µg/mL (≈ 286 µM); in the data set on Bacillus subtilis, 250 µg/mL (≈ 715 µM); against Escherichia coli it was 100 µg/mL (≈ 286 µM); against Staphylococcus aureus, 250 µg/mL (≈ 715 µM).
With `O=C(O)c1cn(C2CC2)c2cc(N3CCNCC3)c(F)cc2c1=O` [CIPROFLOXACIN], the MIC against Pseudomonas aeruginosa stood at 50 µg/mL (≈ 151 µM); against Escherichia coli, 25 µg/mL (≈ 75.4 µM).
Regarding `C[n+]1c2ccccc2cc2[n-]c3ccccc3c21` [CRYPTOLEPINE], in the data set with Leishmania donovani [2], half-maximal inhibition (IC50) was put at 1.6 µM.
